In US20240041884A1, “Pharmaceutical Combinations for Treating Cancer” (Cellestia Biotech AG, priority 2020, published 2024):

What was measured:
[1] = system: MCF-7 cells; assay: Single agent screening, alamarBlue proliferation assay; assay type: cell-based; details: Homo sapiens, MCF7, MCF-7, 72 hours, read-out: IC50 (μM) values of drugs used as single agent
Experimental: (§1) To determine effect of 6-(4-(tert-butyl)phenoxy)pyridin-3-amine with inhibitors of anti-apoptotic proteins, drugs listed in table 1 were used.
(§2) Cells were treated with each of the listed compounds in table 1 as single agent with a concentration ranging from 10 nM to 10 μM in duplicates. Following treatment for 72 hours, cells were incubated with alamarBlue® for 4 hours and cell proliferation readout was taken using Infinite® F500 (Tecan) plate reader. All volumes (cells and alamarBlue®) were dispensed using Multidrop Combi dispenser using a standard cassette (Speed MEDIUM).
(§3) AlamarBlue® viability assay: alamarBlue® proliferation assays were performed to determine the growth kinetics of compound treated cells. alamarBlue® consists of a cell permeable substrate resazurin. In metabolically active and proliferating cells, resazurin is converted to resorufin due to an intrinsic reducing power of live cells and produces a red fluorescence. Therefore, production of resorufin serves as an indicator of the viability of the cell population. Proliferation assays were performed by seeding 1500 cells/well in 384 well plate format. Cells were treated in duplicates with pre-determined concentration of compounds as a single agent or in combination with 6-(4-(tert-butyl)phenoxy)pyridin-3-amine for 72 hours. To determine growth kinetics, alamarBlue® (Invitrogen) was added to each well and incubated for 4 hours. alamarBlue® readout was taken using Infinite® F500 (Tecan) plate reader.
(§4) Data analysis for individual compounds: To determine anti-proliferative activity and IC50 values of individual compounds (listed in table 1) against HCC1187, MCF-7 and RPMI-8402 cells, data were analyzed using GraphPad Prism.

[2] = system: RPMI-8402 cells; assay: as above; assay type: cell-based; details: Homo sapiens, RPMI-8402, 72 hours, read-out: IC50 (μM) values of drugs used as single agent
Experimental: as §1, §2, §3, §4

[3] = system: HCC1187 cells; assay: as above; assay type: cell-based; details: Homo sapiens, HCC1187, 72 hours, read-out: IC50 (μM) values of drugs used as single agent
Experimental: as §1, §2, §3, §4

[4] = system: Primary human T cell acute lymphoblastic leukemia with activated NOTCH pathway; assay: Efficacy in mice bearing primary human T-ALL, survival; assay type: in vivo; details: NSG mice; 6-(4-(tert-butyl)phenoxy)pyridin-3-amine 40 mg/kg QD5 until termination, Venetoclax 25 mg/kg QD for 7 days
Experimental: Efficacy of 6-(4-(tert-butyl)phenoxy)pyridin-3-amine+Venetoclax combination Primary human T cell acute lymphoblastic leukemia with activated NOTCH pathway were intravenously infused into NSG mice. After 7 days of disease establishment, leukemia-bearing mice were treated as below: • 1. Group 1: Vehicle treatment • 2. Group 2: 6-(4-(tert-butyl)phenoxy)pyridin-3-amine treatment at 40 mg/kg, QD5 until termination of the group • 3. Group 3: Venetoclax treatment at 25 mg/kg, QD for 7 days only • 4. Group 4: Venetoclax at 25 mg/kg , QD for first 7 days+6-(4-(tert-butyl)phenoxy)pyridin-3-amine at 40 mg/kg, QD5 until termination of the group.
Animals were monitored for survival on a daily basis.

[5] = system: ACC PDX (human adenoid cystic carcinoma patient-derived xenograft); assay: In vivo efficacy in ACC PDX model, tumor growth inhibition; details: ACC PDX in athymic nude mice; for Percentange tumor growth inhibition (TGI): 6-(4-(tert-butyl)phenoxy)pyridin-3-amine 60 mg/kg SC qdx5, Navitoclax 50 mg/kg PO qdx5; for effect on ACC PDX tumor growth: doses of table 5, compared to vehicle
Source text: In Vivo Efficacy Evaluation of 6-(4-(tert-butyl)phenoxy)pyridin-3-amine and BCL-2 inhibitor ABT-263 (Navitoclax) in a NOTCH! and BCL-2 Positive Patient-Derived Xenograft (ACC PDX) Model Representing Human Adenoid Cystic Carcinoma in Immune-Deficient Mice
ACC PDX model was implanted into Immuno deficient mice and upon reaching a tumor volume of 150-300 mm^3, animals were randomized for treatment with different agents as indicated below.
Athymic mice transplanted with ACC PDX model were randomized into 4 treatment cohorts. Vehicle treatment • 2. 6-(4-(tert-butyl)phenoxy)pyridin-3 -amine • 3. ABT-263 • 4. 6-(4-(tert-butyl)phenoxy)pyridin-3-amine+ABT-263
Tumor volume was measured every 3-4 days. Mean tumor volume and SEM was calculated and Tumor growth inhibition was calculated using the formula TGI=1−(TXFavg−TXiavg)/(Cfavg−Ciavg), where TX is drug treatment group, favg=average tumor volume at treatment end, iavg=average tumor volume upon treatment initiation, C=Vehile treatment group.

[6] = system: blood cells; assay: Safety evaluation in wildtype mice, whole blood analysis; assay type: in vivo; details: 4 consecutive days, day 5 bleed, Venetoclax 12.5, 25, 50 mg/kg, 6-(4-(tert-butyl)phenoxy)pyridin-3-amine 60 mg/kg
Experimental: Wildtype mice were weighed and dosed for 4 consecutive days as below: • 1. Group 1: Vehicle+Vehicle • 2. Group 2: Vehicle+12.5 mg/kg Venetoclax • 3. Group 3: Vehicle+25 mg/k Venetoclax • 4. Group 4: Vehicle+50 mg/kg Venetoclax • 5. […] On day 5, animals were tail vein bled and whole blood analysis was carried out to determine numbers of different cells.

| IC50 [1] [µM] | IC50 [3] [µM] | SMILES | IC50 [2] [µM] | Number of days by which 100% animals died due to leukemia [4] [days] | Percentange tumor growth inhibition (TGI) [5] [%] | effect on ACC PDX tumor growth [5] | effect on blood cells (whole blood analysis) [6] |
| --- | --- | --- | --- | --- | --- | --- | --- |
| 0.37 | 0.24 | Cc1c(-c2c(-c3ccc(F)o3)sc3ncnc(O[C@H](Cc4ccccc4OCc4ccnn4CC(F)(F)F)C(=O)O)c23)ccc(OCCN2CCN(C)CC2)c1Cl (atropisomer, axis not shown) [S63845, (2R)-2-[5-[3-chloro-2-methyl-4-[2-(4-methylpiperazin-1-yl)ethoxy]phenyl]-6-(5-fluorofuran-2-yl)thieno[2,3-d]pyrimidin-4-yl]oxy-3-[2-[[2-(2,2,2-trifluoroethyl)pyrazol-3-yl]methoxy]phenyl]propanoic acid] | 0.04 |  |  |  |  |
|  |  | CC(C)(C)c1ccc(Oc2ccc(N)cn2)cc1 [6-(4-(tert-butyl)phenoxy)pyridin-3-amine] |  | 30 | 37 | induces tumor growth retardation compared to vehicle treated group |  |
| 21 | 20 | CC1(C)CCC(c2ccc(Cl)cc2)=C(CN2CCN(c3ccc(C(=O)NS(=O)(=O)c4ccc(N[C@H](CCN5CCOCC5)CSc5ccccc5)c(S(=O)(=O)C(F)(F)F)c4)cc3)CC2)C1 [ABT-263 (Navitoclax), 4-[4-[[2-(4-chlorophenyl)-5,5-dimethylcydohexen-1-yl]methyl]piperazin-1-yl]-N-[4-[[(2R)-4-morpholin-4-yl-1-phenylsulfonylbutan-2-yl]amino]-3-(trifluoromethylsulfonyl)phenyl]sulfonylbenzamide] | 5.5 |  | 57 | induces tumor growth retardation compared to vehicle treated group |  |
|  |  | CC1(C)CCC(CN2CCN(c3ccc(C(=O)NS(=O)(=O)c4ccc(NCC5CCOCC5)c([N+](=O)[O-])c4)c(Oc4cnc5[nH]ccc5c4)c3)CC2)=C(c2ccc(Cl)cc2)C1 [Venetoclax, 4-[4-[[2-(4-chlorophenyl)-4,4-dimethylcydohexen-1-yl]methyl]piperazin-1-yl]-N-[3-nitro-4-(oxan-4-ylmethylamino)phenyl]sulfonyl-2-(1H-pyrrolo[2,3-b]pyridin-5-yloxy)benzamide] |  | 28 |  |  | decrease of white blood cells, lymphocytes, neutrophils, monocytes and mean platelet mass |
